The subject of test [1] is platelet aggregation. As to the kind of experiment: Anti-platelet-aggregating action: platelet aggregation induced by ADP + 5-HT in platelet rich plasma. The format is cell-based, Japanese white house rabbit. Particulars: Oryctolagus cuniculus, test drug 10^-7 M, aggregation induced by 10^-6 M ADP + 10^-5 M 5-HT, 1 mM CaCl2 CaCl2, rabbit PRP, compound marked * (45) tested as hydrochloride, read-out: Inhibitory rate of platelet aggregation (%). How it is done: (3) Anti-platelet-aggregating action
Blood was drawn from the auricular artery of Japanese white house rabbit (male, about 3 kg), whereby a platelet rich plasma sample (PRP) was prepared. Platelet aggregating ability was measured using a platelet aggregation measuring apparatus ("PAM-SC"/MEBANIX).
Found under the presence of 1 mM of CaCl2 was a controlling action of the test drug (10^-7 M) against the maximum reaction (100%) of the platelet aggregation induced by 10^-6 M of ADP+10^-5 M of 5-HT.

Test [2] deals with α1 receptor. Put plainly: Anti-α1 action: norepinephrine (NE)-induced tonic contraction of isolated thoracic aorta (helical strip). Also noted: species or system Hartley male guinea pig. Particulars: contraction induced by 10^-5 M norepinephrine taken as 100%, guinea pig thoracic aorta, 37° C, compounds marked * tested as hydrochloride; for Anti α1 action (% of Control), 10^-7 M: test drug 10^-7 M, 0.1 µM; for Anti α1 action (% of Control), 10^-8 M: test drug 10^-8 M, 0.01 µM. How it is done:
The thoracic aorta of each Hartley male guinea pig (body weight: 300-500 g) was excised. A sample cut in a helical form was suspended under 1 g load in a Magnus cylinder filled with the Tyrode solution of 37° C. which had been saturated with a mixed gas consisting of 95% O2 +5% CO2. Using an isometric transducer ("TB-612J"/NIHON KOHDEN) and a pressure preamplifier ("AP-620G"/NIHON KOHDEN), variations in tension were measured. The measurement results were recorded on a thermal pen-writing recorder ("WT-647G"/NIHON KOHDEN).
Taking the tonic contraction induced by 10^- 5M norepinephrine (NE) as 100%, the percent contractions upon addition of each test drug at 10^-8 and 10^-7 M were determined as anti-α1 action.

Test [3] deals with T1, serotonin (5-HT) receptor (Cavia porcellus, UniProt A0A286Y537).
T1 construct: 5-HT-induced contraction
Put plainly: Anti-serotonin action (anti-5-HT action): 5-HT-induced contraction of isolated superior mesenteric artery (helical strip). Also noted: species or system Hartley male guinea pig. Particulars: contraction induced by 10^-5 M serotonin taken as 100%, guinea pig superior mesenteric artery, 37° C, compounds marked * tested as hydrochloride; for remaining activity at 1 µM: test drug 10^-6 M, read-out: Anti 5-HT action (% of Control), 10^-6 M; for remaining activity at 0.1 µM: test drug 10^-7 M, read-out: Anti 5-HT action (% of Control), 10^-7 M. How it is done:
(2) Anti-serotonin action (anti-5-HT action)
A sample cut in a helical form was suspended under 0.3 g load in a Magnus cylinder filled with the Tyrode solution of 37° C. which had been saturated with a mixed gas consisting of 95% O2 +5% CO2. Using an isometric transducer ("UL-10"/SHINKOH K.K.) and a pressure preamplifier ("DSA-605A"/SHINKOH K.K.), variations in tension were measured. The measurement results were recorded on a pen-writing recorder ("VP-6537A"/NATIONAL K.K.). Taking the contraction induced by 10^-5 M serotonin (5-HT) as 100%, the percent contractions induced by 10^-5 M 5-HT in the presence of each test drug at 10^-7 and 10^-6 M were determined as anti-5-HT action.

Counter-ions that a name gives are not always drawn.

T1 sequence (A0A286Y537 1-470): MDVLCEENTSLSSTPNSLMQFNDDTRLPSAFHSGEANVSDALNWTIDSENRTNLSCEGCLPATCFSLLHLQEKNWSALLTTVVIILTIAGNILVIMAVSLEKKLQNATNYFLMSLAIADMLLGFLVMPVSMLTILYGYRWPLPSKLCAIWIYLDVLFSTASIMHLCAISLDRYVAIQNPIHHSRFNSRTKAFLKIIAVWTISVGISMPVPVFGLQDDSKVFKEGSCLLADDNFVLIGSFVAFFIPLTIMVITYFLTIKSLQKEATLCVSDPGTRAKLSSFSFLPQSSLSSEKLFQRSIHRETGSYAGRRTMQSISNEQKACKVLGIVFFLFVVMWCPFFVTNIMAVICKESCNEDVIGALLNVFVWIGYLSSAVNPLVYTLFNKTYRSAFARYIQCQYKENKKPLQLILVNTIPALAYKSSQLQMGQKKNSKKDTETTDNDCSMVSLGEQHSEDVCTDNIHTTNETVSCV

For the compound `O=C(c1ccc(F)cc1)C1CCN(CCn2c(=O)[nH]c3ccccc3c2=O)CC1` [Ketanserin tartrate, reference compound], the inhibition at 0.1 µM in test [1] was found to be 20%.
For the compound `COc1cccc(N2CCN(CCCN3CCC(=NO)c4ccn(C)c4C3=O)CC2)c1` [Compound No. 50, 4-Hydroxyimino-7-[3-[4-(3-methoxyphenyl)piperazin-1-yl]propyl]-1-methyl-4,5,6,7-tetrahydropyrrolo[2,3-c]azepin-8(1H)-one], in test [2], the “Anti α1 action (% of Control), 10^-7 M” value is reported as 38.8 % of Control and the “Anti α1 action (% of Control), 10^-8 M” value is on record as 57.6 % of Control. Also, in test [3], the remaining activity at 1 µM was 18.4% and the remaining activity at 0.1 µM was 60%.
Taken in the same sequence, the figures for `O=C1c2c(ccn2Cc2ccccc2)C(=NO)CCN1CCCN1CCN(c2ccccc2)CC1` [Compound No. 48, 1-Benzyl-4-hydroxyimino-7-[3-(4-phenylpiperazin-1-yl)propyl]-4,5,6,7-tetrahydropyrrolo[2,3-c]azepin-8(1H)-one] were 60.5 % of Control, 98.9 % of Control, 5.1% and 52.8%.
In the case of `Cn1ccc2c1C(=O)N(CCCN1CCN(c3ccccc3)CC1)CCC2=NO` [Compound No. 45, 4-hydroxyimino-1-methyl-7-[3-(4-phenylpiperazin-1-yl)propyl]-4,5,6,7-tetrahydropyrrolo[2,3-c]azepin-8(1H)-one], in test [1], the inhibition at 0.1 µM amounted to 30%. Further, in test [2], the “Anti α1 action (% of Control), 10^-7 M” value was 23.8 % of Control and the “Anti α1 action (% of Control), 10^-8 M” value was 79.8 % of Control. Moreover, in test [3], the remaining activity at 0.1 µM was 11.2%.
Turning to `CCn1ccc2c1C(=O)N(CCCN1CCN(c3ccccc3)CC1)CCC2=O` [Compound No. 19, 1-Ethyl-7-[3-(4-phenylpiperazin-1-yl)propyl]-6,7-dihydropyrrolo[2,3-c]azepine-4,8(1H,5H)-dione], in test [2], the “Anti α1 action (% of Control), 10^-7 M” value is recorded as 90.1 % of Control and the “Anti α1 action (% of Control), 10^-8 M” value is recorded as 100.0 % of Control. In addition, in test [3], the remaining activity at 1 µM is 12.4% and the remaining activity at 0.1 µM turned out to be 60.3%.
As to `Cn1ccc2c1C(=O)N(CCCN1CCN(c3ccccc3)CC1)CCC2=O` [Compound No. 18, 1-Methyl-7-[3-(4-phenylpiperazin-1-yl)propyl]-6,7-dihydropyrrolo[2,3-c]azepine-4,8(1H,5H)-dione], in test [2], the “Anti α1 action (% of Control), 10^-7 M” value is 85.5 % of Control and the “Anti α1 action (% of Control), 10^-8 M” value is 100.0 % of Control. Also, in test [3], the remaining activity at 1 µM was 16.3% and the remaining activity at 0.1 µM is 52.8%.
`Cn1ccc2c1C(=O)N(CCCN1CCC(C(=O)c3ccc(F)cc3)CC1)CCC2=NO` [Compound No. 43]: in test [1], the inhibition at 0.1 µM is 18%. In test [2], the “Anti α1 action (% of Control), 10^-7 M” value is given as 37.9 % of Control and the “Anti α1 action (% of Control), 10^-8 M” value is reported as 73.3 % of Control. Moreover, in test [3], the remaining activity at 1 µM was determined as 8.7% and the remaining activity at 0.1 µM worked out at 43.1%.
On to `Cn1ccc2c1C(=O)N(CCCN1CCN(c3ccc(F)cc3)CC1)CCC2O` (centres unmarked) [Compound No. 40, 7-[3-[4-(4-Fluorophenyl)piperazin-1-yl]propyl]-4-hydroxy-1-methyl-4,5,6,7-tetrahydropyrrolo[2,3-c]azepin-8(1H)-one], for which, in test [2], the “Anti α1 action (% of Control), 10^-7 M” value is on record as 94.5 % of Control and the “Anti α1 action (% of Control), 10^-8 M” value was 100.0 % of Control. In test [3], the remaining activity at 1 µM came out at 12.5% and the remaining activity at 0.1 µM stood at 24.2%.
Take `CCn1ccc2c1C(=O)N(CCCN1CCN(c3ccccc3)CC1)CCC2=NO` [Compound No. 47, 1-Ethyl-4-hydroxyimino-7-[3-(4-phenylpiperazin-1-yl)propyl]-4,5,6,7-tetrahydropyrrolo[2,3-c]azepin-8(1H)-one]: the inhibition at 0.1 µM in test [1] is 34%. Further, in test [2], the “Anti α1 action (% of Control), 10^-7 M” value is recorded as 81.9 % of Control and the “Anti α1 action (% of Control), 10^-8 M” value is 100.0 % of Control. In addition, the remaining activity at 0.1 µM in test [3] came to 5.2%.
As to `CON=C1CCN(CCCN2CCN(c3ccccc3)CC2)C(=O)c2c1ccn2C` [Compound No. 46, 4-Methoxyimino-1-methyl-7-[3-(4-phenylpiperazin-1-yl)propyl]-4,5,6,7-tetrahydropyrrolo[2,3-c]azepin-8(1H)-one], in test [2], the “Anti α1 action (% of Control), 10^-7 M” value is reported as 28.0 % of Control and the “Anti α1 action (% of Control), 10^-8 M” value is 78.7 % of Control. Besides, in test [3], the remaining activity at 1 µM is 12.8% and the remaining activity at 0.1 µM came out at 59.5%.
Consider `Cn1ccc2c1C(=O)N(CCCN1CCN(c3ccccc3)CC1)CCC2O` (centres unmarked) [Compound No. 39, 4-hydroxy-1-methyl-7-[3-(4-phenylpiperazin-1-yl)propyl]-4,5,6,7-tetrahydropyrrolo[2,3-c]azepin-8(1H)-one], for which the inhibition at 0.1 µM in test [1] amounted to 33%. For the same compound, in test [2], the “Anti α1 action (% of Control), 10^-7 M” value is reported as 80.5 % of Control and the “Anti α1 action (% of Control), 10^-8 M” value was 99.3 % of Control. In test [3], the remaining activity at 1 µM worked out at 8.7% and the remaining activity at 0.1 µM is 34.3%.
Consider `Cn1ccc2c1C(=O)N(CCCN1CCC(c3ccccc3)CC1)CCC2=NO` [Compound No. 52, 4-Hydroxyimino-1-methyl-7-[3-(4-phenylpiperidin-1-yl)propyl]-4,5,6,7-tetrahydropyrrolo[2,3-c]azepin-8(1H)-one], for which, in test [2], the “Anti α1 action (% of Control), 10^-7 M” value is 62.6 % of Control and the “Anti α1 action (% of Control), 10^-8 M” value is listed as 97.2 % of Control. In test [3], the remaining activity at 1 µM was found to be 9.9% and the remaining activity at 0.1 µM worked out at 39.1%.

Source of the values: US5399557A, “Pyrroloazepine compound” (Suntory Limited, priority 1991, dated 1995).
